Data: patent publication US11897862B2 (Gilead Sciences, Inc., priority 2022, dated 2024)

Experiments:
[1] = target: T1, IKZF1 (Homo sapiens, UniProt Q13422+Q96SW2); experiment: HEK293 HiBiT in vitro degradation of IKZF1; type: cell-based; conditions: for DC50 / IKZF1 Dmax: HEK293 HiBiT; for DC50: 18-24 hr incubation, normalized to DMSO control, read-out: IKZF1 EC50; for Dmax: HEK293, HEK293 HiBiT; for Dmax / IKZF1 Dmax: maximum degradation at the highest concentration tested
T1 construct: expressed in transfected cells
Procedure: (§1) In vitro degradation of IKZF1, IKZF2, and SALL4 was measured using HiBiT protein tagging and detection technology (Promega).
(§2) HiBit technology was used to develop the quantitative assays to measure the cellular IKZFs level by tagging an 11 amino acid HiBit peptides […] to the protein of interest. Reporter plasmids were generated by fusing a linker sequence ([…]) followed by the HiBit tag at the C-terminus of IKZF1, IKZF2, and SALL4. The fusion fragments were subsequently cloned into pcDNA5 pcDNA™5/FRT/TO plasmids (Thermo Fisher, cat #V652020) downstream of the tetracycline operator. The resulting plasmids were co-transfected with pOG44 Flp-Recombinase Expression Vector (Thermo Fisher, cat #V600520) into Flp-In™ T-REx HEK293 line (Thermo Fisher, cat #R78077) and a stable cell pool was selected by adding 100 µg/ml of Hygromycin (Thermo Fisher, cat #10687010). The reporter cell enabled Tet-On inducible reporter expression from a single copy of the integrated gene.
(§3) On Day 1, Cells were grown to ˜80% confluency in tissue culture medium (DMEM Glutamax (Gibco10569), 10% Tet free FBS (Takara 631106), and PenStrep Glutamin (Gibco 10378)) in tissue culture flasks. Doxycycline was then added to a final concentration of […] to induce reporter expression at 37° C. overnight.
(§4) On Day 2, 125 nL of serially-diluted solution of testing compounds were dispensed into 384-well white solid assay plates via ECHO acoustic liquid handler. Cells were lifted by 0.25% Trypsin (Gibco 25200) then pelleted by centrifugation (Beckman Avanti J-E) at 500×g for 5 min. Cell pellets were resuspended in TC medium at the concentration of 3e5/mL and 25 μL of cell suspension were added into each well of compound-spotted plates. The plates were returned to a 37° C. incubator overnight (18-24 hr).
(§5) On Day 3, assay plates were removed from the tissue culture incubator and 25 μL of Nano-Glo lytic detection system (Promega, cat #N3030) was added to each well. Plates were incubated at r.t. for 3 min with shaking, and luminescence was read using an Envision reader (Perkin Elmer).
(§6) To assess the IKZF1, IKZF2, and SALL4 degrader potential of exemplified compounds of this disclosure and certain Reference Compounds EC50 and Dmax values were determined for the compounds of Examples 1 to 383 and Reference Compounds A-1, B-1, B-2, B-3, B-4, and C-1 in the HiBiT assays. Asterisks (*) indicate examples for which the data shown represents an average of n≥3.

[2] = target: IKZF2 (Homo sapiens, UniProt Q96SW2+Q9UKS7); experiment: HEK293 HiBiT in vitro degradation of IKZF2; type: cell-based; set-up: expressed in transfected cells; conditions: for Dmax: HEK293, HEK293 HiBiT; for Dmax / IKZF2 Dmax: maximum degradation at the highest concentration tested; for DC50 / IKZF2 Dmax: HEK293 HiBiT; for DC50: 18-24 hr incubation, normalized to DMSO control, read-out: IKZF2 EC50
Procedure: as §1, §2, §3, §4, §5, §6

T1 sequence (Q13422 whole entry): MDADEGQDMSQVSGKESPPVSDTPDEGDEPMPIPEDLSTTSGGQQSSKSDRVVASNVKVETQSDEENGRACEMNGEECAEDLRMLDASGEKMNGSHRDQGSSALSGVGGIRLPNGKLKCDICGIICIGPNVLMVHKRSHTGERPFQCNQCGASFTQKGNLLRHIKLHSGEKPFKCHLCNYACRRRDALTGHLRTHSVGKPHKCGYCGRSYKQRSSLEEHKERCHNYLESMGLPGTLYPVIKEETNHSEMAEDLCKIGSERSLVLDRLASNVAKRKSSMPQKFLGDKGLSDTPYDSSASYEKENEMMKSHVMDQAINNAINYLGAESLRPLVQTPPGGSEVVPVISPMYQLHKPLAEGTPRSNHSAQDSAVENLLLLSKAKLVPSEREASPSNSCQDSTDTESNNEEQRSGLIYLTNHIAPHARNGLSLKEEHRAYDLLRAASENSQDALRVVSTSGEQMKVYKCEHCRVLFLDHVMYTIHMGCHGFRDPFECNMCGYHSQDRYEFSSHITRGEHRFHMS
T1 sequence (Q96SW2 whole entry): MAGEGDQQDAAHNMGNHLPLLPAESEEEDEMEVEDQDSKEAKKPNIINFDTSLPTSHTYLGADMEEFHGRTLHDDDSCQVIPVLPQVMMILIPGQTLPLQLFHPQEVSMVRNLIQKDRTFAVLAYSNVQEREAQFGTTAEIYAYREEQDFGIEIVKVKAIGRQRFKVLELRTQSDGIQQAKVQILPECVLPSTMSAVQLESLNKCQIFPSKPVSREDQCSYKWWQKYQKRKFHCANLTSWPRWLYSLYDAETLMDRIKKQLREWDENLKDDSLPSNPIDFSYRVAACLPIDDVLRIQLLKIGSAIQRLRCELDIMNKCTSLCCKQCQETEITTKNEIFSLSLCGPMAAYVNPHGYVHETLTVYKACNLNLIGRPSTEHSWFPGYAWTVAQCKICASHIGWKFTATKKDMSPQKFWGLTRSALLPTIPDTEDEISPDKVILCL
T1 sequence (Q16531 whole entry partner): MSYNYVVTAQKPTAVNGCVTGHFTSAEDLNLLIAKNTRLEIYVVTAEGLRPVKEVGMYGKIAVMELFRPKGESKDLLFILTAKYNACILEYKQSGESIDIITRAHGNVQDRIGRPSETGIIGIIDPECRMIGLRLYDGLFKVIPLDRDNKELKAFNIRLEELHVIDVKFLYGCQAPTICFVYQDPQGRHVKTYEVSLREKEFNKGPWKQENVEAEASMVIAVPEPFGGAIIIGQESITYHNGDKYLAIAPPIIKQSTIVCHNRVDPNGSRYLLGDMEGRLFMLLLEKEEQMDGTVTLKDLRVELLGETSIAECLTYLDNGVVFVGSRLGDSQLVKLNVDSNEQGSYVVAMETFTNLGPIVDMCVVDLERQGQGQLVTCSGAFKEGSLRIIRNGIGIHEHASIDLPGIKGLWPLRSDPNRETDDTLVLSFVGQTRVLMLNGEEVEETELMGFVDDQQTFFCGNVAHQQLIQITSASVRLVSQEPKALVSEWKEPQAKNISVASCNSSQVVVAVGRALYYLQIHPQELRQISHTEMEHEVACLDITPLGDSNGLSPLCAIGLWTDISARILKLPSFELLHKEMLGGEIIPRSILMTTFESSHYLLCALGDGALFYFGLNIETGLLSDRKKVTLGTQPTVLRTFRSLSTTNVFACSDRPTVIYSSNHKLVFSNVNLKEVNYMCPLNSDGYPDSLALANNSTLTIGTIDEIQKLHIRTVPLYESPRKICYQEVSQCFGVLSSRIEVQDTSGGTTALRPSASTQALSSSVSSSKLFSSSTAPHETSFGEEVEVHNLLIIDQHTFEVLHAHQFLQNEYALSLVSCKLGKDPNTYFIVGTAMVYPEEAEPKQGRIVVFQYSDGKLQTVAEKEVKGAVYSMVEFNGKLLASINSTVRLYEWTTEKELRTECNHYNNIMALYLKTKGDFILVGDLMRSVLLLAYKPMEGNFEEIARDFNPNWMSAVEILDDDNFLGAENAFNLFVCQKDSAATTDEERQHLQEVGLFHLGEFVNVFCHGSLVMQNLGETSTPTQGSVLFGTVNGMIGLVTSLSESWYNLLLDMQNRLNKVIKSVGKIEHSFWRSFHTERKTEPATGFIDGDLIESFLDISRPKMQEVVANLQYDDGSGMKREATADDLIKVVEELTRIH
IKZF2, sequence (Q9UKS7 1-500 isoform Q9UKS7-2): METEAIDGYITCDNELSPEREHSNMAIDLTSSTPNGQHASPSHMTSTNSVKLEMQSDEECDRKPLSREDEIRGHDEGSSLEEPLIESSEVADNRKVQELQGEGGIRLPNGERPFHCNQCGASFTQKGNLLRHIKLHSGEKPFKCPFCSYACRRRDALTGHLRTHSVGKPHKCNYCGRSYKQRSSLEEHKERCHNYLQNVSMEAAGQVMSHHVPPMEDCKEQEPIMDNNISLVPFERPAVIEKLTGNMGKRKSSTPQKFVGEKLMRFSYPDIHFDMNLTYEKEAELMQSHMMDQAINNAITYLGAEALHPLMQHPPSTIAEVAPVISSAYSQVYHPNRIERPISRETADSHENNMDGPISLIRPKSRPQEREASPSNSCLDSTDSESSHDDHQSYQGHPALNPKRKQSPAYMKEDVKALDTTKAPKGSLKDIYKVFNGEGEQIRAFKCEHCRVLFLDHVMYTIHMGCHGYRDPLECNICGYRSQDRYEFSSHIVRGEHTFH
IKZF2, sequence (Q96SW2 whole entry): as the sequence (Q96SW2 whole entry) above
IKZF2, sequence (Q16531 whole entry partner): as the sequence (Q16531 whole entry partner) above

DC50 [1] [nM]	Dmax [2] [%]	DC50 [2] [nM]	Dmax [1] [%]	IKZF1 Dmax [1] [%]	IKZF2 Dmax [2] [%]	Structure (SMILES)
> 1000	93	23				CC1(C)OCCC1N[C@H]1CCCC[C@@H]1Cc1ccc2c(c1)CN(C1CCC(=O)NC1=O)C2=O (single isomer, unassigned) [Example 273]
99	94	19	35			N#Cc1ccc(CN[C@H]2CCCC[C@@H]2Cc2ccc3c(c2)CN(C2CCC(=O)NC2=O)C3=O)cc1 (stereo partly drawn) [Example 20, 4-((((1S,2R)-2-((2-(2,6-dioxopiperidin-3-yl)-1-oxoisoindolin-5-yl)methyl)cyclohexyl)amino)methyl)benzonitrile]
76	96	4	31			O=C1CCC(N2Cc3cc(C[C@H]4CCCC[C@@H]4NC4CCCC[C@@H]4F)ccc3C2=O)C(=O)N1 (some centres unmarked) [Example 105]
> 1000	95	7				O=C1CCC(N2Cc3c(ccc(C[C@H]4OCCC[C@@H]4NC4CCC(C(F)F)CC4)c3F)C2=O)C(=O)N1 (single isomer, unassigned) [Example 282]
141	97	12	34			O=C1CCC(N2Cc3cc(C[C@H]4CCCC[C@@H]4NC4CCC5(CC4)COC5)ccc3C2=O)C(=O)N1 (stereo partly drawn) [Example 86, 3-(5-(((1R,2S)-2-((2-oxaspiro[3.5]nonan-7-yl)amino)cyclohexyl)methyl)-1-oxoisoindolin-2-yl)piperidine-2,6-dione]
70		3		29	98	CC1CCC(N[C@H]2CCCC[C@@H]2Cc2ccc3c(c2)CN(C2CCC(=O)NC2=O)C3=O)CC1 (single isomer, unassigned) [Example 280]
42	81	29	34			O=C1CCC(N2Cc3cc(C[C@H]4CCCC[C@@H]4N4CC(Oc5ccccc5Cl)C4)ccc3C2=O)C(=O)N1 (stereo partly drawn) [Example 30, 3-(5-(((1R,2S)-2-(3-(2-chlorophenoxy)azetidin-1-yl)cyclohexyl)methyl)-1-oxoisoindolin-2-yl)piperidine-2,6-dione]
> 500		20			86	CC(N[C@H]1CCCC[C@@H]1Cc1ccc2c(c1)CN(C1CCC(=O)NC1=O)C2=O)C(C)(C)F (single isomer, unassigned) [Example 227]
> 1000	90	139				O=C1CCC(N2Cc3c(ccc(C[C@H]4OCCC[C@@H]4NC4CCc5cn[nH]c5C4)c3F)C2=O)C(=O)N1 (single isomer, unassigned) [Example 360]
	90		29			[2H]c1c([2H])c([2H])c(C([2H])N[C@H]2CCCC[C@@H]2Cc2ccc3c(c2)CN(C2CCC(=O)NC2=O)C3=O)c([2H])c1[2H] (single isomer, unassigned) [Example 120]
173	95	9	35			O=C1CCC(N2Cc3c(ccc(C[C@H]4CCCC[C@@H]4NCC45CC(C4)C5)c3F)C2=O)C(=O)N1 (some centres unmarked) [Example 96]
54	98	1	37			[2H]C1(N[C@H]2CCCC[C@@H]2Cc2ccc3c(c2F)CN(C2CCC(=O)NC2=O)C3=O)CCCCC1 (some centres unmarked) [Example 211]
216	90	24	44			O=C1CCC(N2Cc3cc(C[C@H]4CCCC[C@@H]4NCc4cccnc4)ccc3C2=O)C(=O)N1 (stereo partly drawn) [Example 41, 3-(1-oxo-5-(((1R,2S)-2-((pyridin-3-ylmethyl)amino)cyclohexyl)methyl)isoindolin-2-yl)piperidine-2,6-dione]
> 500	73	51				O=C1CCC(N2Cc3c(ccc(C[C@H]4OCCC[C@@H]4NCC4CC(F)(F)C4)c3F)C2=O)C(=O)N1 (some centres unmarked) [Example 150]
58	98	2	53			O=C1CCC(N2Cc3c(ccc(C[C@H]4CCCC[C@@H]4NC4CC5CCCC5C4)c3F)C2=O)C(=O)N1 (some centres unmarked) [Example 141]
> 500	90	114				C[C@@]1(O)CC[C@H](NC2CCC(F)(F)CC2)[C@@H](Cc2ccc3c(c2)CN(C2CCC(=O)NC2=O)C3=O)C1 (some centres unmarked) [Example 154]

DC50 [1] [nM]	Dmax [2] [%]	DC50 [2] [nM]	Dmax [1] [%]	IKZF1 Dmax [1] [%]	IKZF2 Dmax [2] [%]	Structure (SMILES)
111	96	1	40			CCC(C)N[C@H]1CCCC[C@@H]1Cc1ccc2c(c1F)CN(C1CCC(=O)NC1=O)C2=O (some centres unmarked) [Example 307]
> 1000	96	3				CCC(C)N[C@H]1CCCC[C@@H]1Cc1ccc2c(c1)CN(C1CCC(=O)NC1=O)C2=O (some centres unmarked) [Example 176]
> 1000		91			81	O=C1CCC(N2Cc3cc(C[C@H]4CCCC[C@@H]4NC4CCCCC4(F)F)ccc3C2=O)C(=O)N1 (some centres unmarked) [Example 183]
17	93	14	84			CC(N[C@H]1CCCC[C@@H]1Cc1ccc2c(c1)CN(C1CCC(=O)NC1=O)C2=O)C(C)(C)F (single isomer, unassigned) [Example 226]
> 1000	92	20				O=C1CCC(N2Cc3cc(C[C@H]4CCCC[C@@H]4NC4C5CCC4COC5)ccc3C2=O)C(=O)N1 (some centres unmarked) [Example 194]
> 1000		629			48	O=C1CCC(N2Cc3cc(C[C@H]4CC(CO)CC[C@@H]4NC4CCCCC4)ccc3C2=O)C(=O)N1 (single isomer, unassigned) [Example 382]
77	93	16	24			O=C1CCC(N2Cc3cc(C[C@H]4CCCC[C@@H]4NCCCC(F)F)ccc3C2=O)C(=O)N1 (some centres unmarked) [Example 135]
> 1000	81	45				O=C1CCC(N2Cc3cc(C[C@H]4CCCC[C@@H]4NCc4ccncc4)ccc3C2=O)C(=O)N1 (stereo partly drawn) [Example 40, 3-(1-oxo-5-(((1R,2S)-2-((pyridin-4-ylmethyl)amino)cyclohexyl)methyl)isoindolin-2-yl)piperidine-2,6-dione]
371	94	6	44			CC(CCCC(F)(F)F)N[C@H]1CCCO[C@@H]1Cc1ccc2c(c1F)CN(C1CCC(=O)NC1=O)C2=O (some centres unmarked) [Example 321]
> 1000	89	17				C[C@H](N[C@H]1CCCC[C@@H]1Cc1ccc2c(c1)CN(C1CCC(=O)NC1=O)C2=O)c1ccccc1 (stereo partly drawn) [Example 66, 3-(1-oxo-5-(((1R,2S)-2-(((S)-1-phenylethyl)amino)cyclohexyl)methyl)isoindolin-2-yl)piperidine-2,6-dione]
246		3		39	97	CC(C)OC1CCC(N[C@H]2CCCC[C@@H]2Cc2ccc3c(c2)CN(C2CCC(=O)NC2=O)C3=O)CC1 (single isomer, unassigned) [Example 168]
> 1000	96	7				CC(N[C@H]1CCCC[C@@H]1Cc1ccc2c(c1)CN(C1CCC(=O)NC1=O)C2=O)C1CCCC1 (some centres unmarked) [Example 201]
174	97	4	56			O=C1CCC(N2Cc3cc(C[C@H]4CCC(F)(F)C[C@@H]4NC4CCC(F)(F)CC4)ccc3C2=O)C(=O)N1 (some centres unmarked) [Example 345]
> 1000	89	42				O=C1CCC(N2Cc3cc(C[C@H]4CCCC[C@@H]4NCc4c(F)cccc4F)ccc3C2=O)C(=O)N1 (stereo partly drawn) [Example 18, 3-(5-(((1R,2S)-2-((2,6-difluorobenzyl)amino)cyclohexyl)methyl)-1-oxoisoindolin-2-yl)piperidine-2,6-dione]
> 1000		3			97	CC1(C)CCCC(N[C@H]2CCCC[C@@H]2Cc2ccc3c(c2)CN(C2CCC(=O)NC2=O)C3=O)C1 (single isomer, unassigned) [Example 276]
> 1000	72	168				O=C1CCC(N2Cc3cc(C[C@H]4CCC[C@@H]4NC4CCC(F)(F)CC4)ccc3C2=O)C(=O)N1 (some centres unmarked) [Example 178]
